Paper PMC9502539, “1,2,3-Triazole-Benzofused Molecular Conjugates as Potential Antiviral Agents against SARS-CoV-2 Virus Variants” (Life, 2022)
In brackets after ≈: the same amount, converted by molar mass.

Experiments:
[1] = test system: SARS-CoV-2; conditions: cited from earlier work
[2] = in vitro; conditions: African green monkey
[3] = target: T1, SARS-CoV-2 spike protein (Severe acute respiratory syndrome coronavirus 2, UniProt P0DTC2); experiment: biochemical; assay type: binding; conditions: read-out: remaining activity % of SARS-CoV-2 spike proteins; for remaining activity at 0.1 µM: tested concentration 100 nM; for remaining activity at 0.2 µM: tested concentration 200 nM; for remaining activity at 0.5 µM: tested concentration 500 nM; for remaining activity at 0.75 µM: tested concentration 750 nM; for remaining activity at 1 µM: tested concentration 1000 nM
T1 construct: purchased Biosource, Muskego, WI, USA

[4] = test system: SARS-CoV-2; experiment: microbe, parasite or virus in culture; assay type: cell-based; conditions: for EC50: Severe acute respiratory syndrome coronavirus 2, Vero C1008
[5] = test system: IL-6; experiment: Proinflammatory cytokine production (ELISA) in infected cells; assay type: cell-based; conditions: infected cells treated with compound vs infected untreated
[6] = test system: IL-1β; experiment: as above; assay type: cell-based; conditions: infected cells treated with compound vs infected untreated

Row | Compound | antiviral activity against SARS-CoV-2 [1] | CC50 [2] [µg/mL] | remaining activity at 0.1 µM [3] [%] | remaining activity at 0.2 µM [3] [%] | remaining activity at 0.5 µM [3] [%] | remaining activity at 0.75 µM [3] [%] | remaining activity at 1 µM [3] [%] | Selectivity Index (SI) [4] | EC50 [4] [µg/mL] | IL-6 protein expression level [5] | IL-1β protein expression level [6]
1 | Fc1ccc2nc(C(F)(F)F)cc(OCc3cn(-c4ccccc4Cl)nn3)c2c1 [10 g, 4-((1-(2-chlorophenyl)-1H-1,2,3-triazol-4-yl)methoxy)-6-fluoro-2-(trifluoromethyl)quinoline] | high antiviral activity | – | – | – | – | – | – | – | – | – | –
2 | COc1ccc(-n2cc(CCOc3cc(C(F)(F)F)nc4ccc(F)cc34)nn2)cc1 [12c, 6-fluoro-4-(2-(1-(4-methoxyphenyl)-1H-1,2,3-triazol-4-yl)ethoxy)-2-(trifluoromethyl)quinoline] | high antiviral activity | – | – | – | – | – | – | – | – | – | –
3 | CC(C)(O/N=C(\C(=O)N[C@@H]1C(=O)N2C(C(=O)[O-])=C(C[n+]3ccccc3)CS[C@H]12)c1csc(N)n1)C(=O)O [Ceftazidime, ceftazidime, reference compound] | – | 1050 (≈ 1910 µM) | 99 | 79 | 59 | 55.1 | 45.2 | 12.29 | 85.1 (≈ 156 µM) | – | –
4 | O=C(Cn1cc(CSc2nc3ccccc3n2Cc2cn(CC(=O)NNC(=S)Nc3ccccc3)nn2)nn1)NNC(=S)Nc1ccccc1 [compound 4] | – | 1900 (≈ 2610 µM) | 74.6 | 46 | 21.9 | 20 | 18 | 10.90 | 174 (≈ 240 µM) | – | –
5 | O=C(Cn1cc(CSc2nc3ccccc3n2Cc2cn(CC(=O)NNC(=S)Nc3ccc(F)cc3)nn2)nn1)NNC(=S)Nc1ccc(F)cc1 [compound 5] | – | 2040 (≈ 2670 µM) | 83.8 | 70.2 | 45.8 | 32 | 26 | 8.82 | 231 (≈ 303 µM) | – | –
6 | S=c1[nH]nc(Cn2cc(CSc3nc4ccccc4n3Cc3cn(Cc4n[nH]c(=S)n4-c4ccccc4)nn3)nn2)n1-c1ccccc1 [compound 6] | – | 1070 (≈ 1540 µM) | 79.9 | 65.4 | 38.2 | 27 | 20 | 6.87 | 155 (≈ 224 µM) | – | –
7 | Nn1c(Cn2cc(CSc3nc4ccccc4n3Cc3cn(Cc4n[nH]c(=S)n4N)nn3)nn2)n[nH]c1=S [compound 7] | – | 1530 (≈ 2690 µM) | 86.1 | 77.2 | 58.6 | 44 | 40 | 5.0 | 306 (≈ 538 µM) | – | –
8 | Cc1onc(NS(=O)(=O)c2ccc(-n3cc(CSc4nc5ccccc5n4Cc4cn(-c5ccc(S(=O)(=O)Nc6noc(C)c6C)cc5)nn4)nn3)cc2)c1C [compound 9] | – | 1030 (≈ 1260 µM) | 67.1 | 32.7 | 11.4 | 12 | 5 | – | 80.4 (≈ 98.9 µM) | noticeably reduced | noticeably reduced
9 | Cc1ccc2nc(NC(=O)Cn3cc(CN4C(=O)C(=O)c5ccccc54)nn3)sc2c1 [compound 12] | – | 332 (≈ 767 µM) | 95.9 | 92.5 | 82 | 82 | 70 | 0.87 | 382 (≈ 882 µM) | – | –
